Test results reported in patent US5712297A, “Piperdine compounds and their preparation and use” (Novo Nordisk A/S, priority 1989, dated 1998).
Counter-ions that a name gives are not always drawn.

Biological target: muscarinic acetylcholine receptors
Test: Inhibition of specific binding of 3H-Oxotremorine-M (3H-Oxo)
Set-up: species or system rat (male Wistar
Details: rat cortex; 3H-Oxotremorine 1.0 nM; 20 mM Hepes pH 7.4; 30 min at 25° C.
Procedure: The pharmacological properties of the compounds of the present invention (Formula I) can be illustrated by determining their capability to inhibit the specific binding of ^3 H-Oxotremorine-M (^3 H-Oxo).
^3 H-Oxo labels muscarinic receptors in the CNS (with a preference for agonist domaines of the receptors). Three different sites are labelled by 3H-Oxo. These sites have affinity of 1.0, 20 and 3000 nM, respectively. Using the present experimental conditions only the high and medium affinity sites are determined. The inhibitory effects of compounds on ^3 H-Oxo binding reflects the affinity for muscarinic acetylcholine receptors.
All preparations are performed at 0°-4° C. unless otherwise indicated. Fresh cortex (0.1-1 g) from male Wistar rats (150-250 g) is homogenized for 5-10 s in 10 ml 20 mM Hepes pH: 7.4, with an Ultra-Turrax homogenizer. The homogenizer is rinsed with 10 ml of buffer and the combined suspension centrifuged for 15 min at 40,000×g. The pellet is washed three times with buffer. In each step the pellet is homogenized as before in 2×10 ml of buffer and centrifuged for 10 min at 40,000×g. The final pellet is homogenized in 20 mM Hepes pH: 7.4 (100 ml per g of original tissue) and used for binding assay. Aliquots of 0.5 ml is added 25 μl of test solution and 25 μl of ^3 H-Oxotremorine (1.0 nM, final concentration) mixed and incubated for 30 min at 25° C. Non-specific binding is determined in triplicate using Arecoline (1 μg/ml, final concentration) as the test substance. After incubation samples are added 5 ml of ice-cold buffer and poured directly onto Whatman GF/C glass fiber filters under suction and immediately washed 2 times with 5 ml of ice-cold buffer. The amount of radioactivity on the filters are determined by conventional liquid scintillation counting. Specific binding is total binding minus non-specific binding. Test substances are dissolved in 10 ml water (if necessary heated on a steam-bath for less than 5 minutes) at a concentration of 2.2 mg/ml. 25-75% inhibition of specific binding must be obtained before calculation of IC50.
The test value will be given as IC50 (the concentration (ng/ml) of the test substance which inhibits the specific binding of ^3 H-Oxo by 50%). [formula] where Co is specific binding in control assays and Cx is the specific binding in the test assay. (The calculations assume normal mass-action kinetics).

Row | Inhibition in vitro OXO BINDING (IC50: concentration which inhibits the specific binding of 3H-Oxo by 50%) [ng/mL] | Compound
1 | 8 | CCCCOc1nonc1C1=CCCN(C)C1.O=C(O)C(=O)O [Compound 55, 3-(4-butyloxy-1,2,5-oxadiazol-3-yl)-1,2,5,6-tetrahydro-1-methylpyridine oxalate]
2 | 0.3 | C#CCOc1nsnc1C1=CCCN(C)C1.O=C(O)C(=O)O [Compound 13, 1,2,5,6-tetrahydro-1-methyl-3-(4-propargyloxy-1,2,5-thiadiazol-3-yl)pyridine oxalate]
3 | 1.2 | CN1CCC=C(c2cnon2)C1.O=C(O)C(=O)O [Compound 53, 3-(1,2,5-oxadiazol-3-yl)-1,2,5,6-tetrahydro-1-methylpyridine oxalate]
4 | 0.6 | CCCCSc1nsnc1C1=CCCN(C)C1.O=C(O)C(=O)O [Compound 48, 3-(4-butylthio-1,2,5-thiadiazol-3-yl)-1,2,5,6-tetrahydro-1-methylpyridine oxalate]
5 | 1.4 | CCC/C=C\COc1nsnc1C1=CCCN(C)C1.O=C(O)C(=O)O [Compound 32, cis-3-(4-(2-hexenyloxy)-1,2,5-thiadiazol-3-yl)-1,2,5,6-tetrahydro-1-methylpyridine oxalate]
6 | 1.5 | COc1nsnc1C1=CCCN(C)C1.O=C(O)C(=O)O [Compound 1, 1,2,5,6-tetrahydro-3-(4-methoxy-1,2,5-thiadiazol-3-yl)-1-methylpyridine oxalate]
7 | 0.6 | COCCOc1nsnc1C1=CCCN(C)C1.O=C(O)C(=O)O [Compound 15, 1,2,5,6-tetrahydro-3-(4-methoxyethoxy-1,2,5-thiadiazol-3-yl)-1-methylpyridine oxalate]
8 | 14 | CC1CCN(c2nsnc2C2=CCCN(C)C2)CC1.O=C(O)C(=O)O [Compound 44, 3-(4-(4-methylpiperidino)-1,2,5-thiadiazol-3-yl)-1,2,5,6-tetrahydro-1-methylpyridine oxalate]
9 | 0.4 | CCOc1nsnc1C1=CCCN(C)C1.O=C(O)C(=O)O [Compound 2, 3-(4-ethoxy-1,2,5-thiadiazol-3-yl)-1,2,5,6-tetrahydro-1-methylpyridine oxalate]
10 | 3.6 | CCCCCCOc1nsnc1C1=CCCN(C)C1 [Compound 9, 3-(4-hexyloxy-1,2,5-thiadiazol-3-yl)-1,2,5,6-tetrahydro-1-methylpyridineoxalate]
11 | 0.3 | CN1CCC=C(c2cnsn2)C1.O=C(O)C(=O)O [Compound 36, 3-(1,2,5-thiadiazol-3-yl)-1,2,5,6-tetrahydro-1-methylpyridine oxalate]
12 | 164 | CCCCCCCCc1nsnc1C1=CCCN(C)C1 [Compound 60, 3-(4-octyl-1,2,5-thiadiazol-3-yl)-1,2,5,6-tetrahydro-1-methylpyridinium oxalate]
13 | 2.4 | CCCCCCCOc1nsnc1C1=CCCN(C)C1.O=C(O)C(=O)O [Compound 21, 3-(4-heptyloxy-1,2,5-thiadiazol-3-yl)-1,2,5,6-tetrahydro-1-methylpyridine oxalate]
14 | 0.4 | CC#CCCOc1nsnc1C1=CCCN(C)C1.O=C(O)C(=O)O [Compound 22, 3-(4-(3-pentynyloxy)-1,2,5-thiadiazol-3-yl)-1,2,5,6-tetrahydro-1-methylpyridine oxalate]
15 | 3.7 | CCOCCOc1nsnc1C1=CCCN(C)C1.O=C(O)C(=O)O [Compound 40, 3-(4-(2-ethoxyethoxy)-1,2,5-thiadiazol-3-yl)-1,2,5,6-tetrahydro-1-methylpyridine oxalate]
16 | 0.4 | CN1CCC=C(c2nsnc2OCC2CC2)C1.O=C(O)C(=O)O [Compound 14, 3-(4-cyclopropylmethoxy-1,2,5-thiadiazol-3-yl)-1,2,5,6-tetrahydro-1-methylpyridine oxalate]
17 | 58 | CCCCCCCCSc1nsnc1C1=CCCN(C)C1.O=C(O)C(=O)O [Compound 64, 3-(4-octylthio-1,2,5-thiadiazol-3-yl)-1,2,5,6-tetrahydro-1-methylpyridine oxalate]
18 | 7.4 | COCCOCCOc1nsnc1C1=CCCN(C)C1.O=C(O)C(=O)O [Compound 38, 3-(4-(2-(2-methoxyethoxy)ethoxy)-1,2,5-thiadiazol-3-yl)-1,2,5,6-tetrahydro-1-methylpyridine oxalate]
19 | 1.3 | C=CC(C)Oc1nsnc1C1=CCCN(C)C1 (centres unmarked) [Compound 28, 3-(4-(3-butenyl-2-oxy)-1,2,5-thiadiazol-3-yl)-1,2,5,6-tetrahydro-1-methylpyridine oxalate]
20 | 5.9 | CCOc1nsnc1C1=CCCN(CC)C1.O=C(O)C(=O)O [Compound 20, 3-(4-ethoxy-1,2,5-thiadiazol-3-yl)-1-ethyl-1,2,5,6-tetrahydropyridine oxalate]
21 | 0.3 | CCCSc1nsnc1C1=CCCN(C)C1 [Compound 47, 3-(4-propylthio-1,2,5-thiadiazol-3-yl)-1,2,5,6-tetrahydro-1-methylpyridineoxalate]
22 | 0.6 | CC=CCCCOc1nsnc1C1=CCCN(C)C1.O=C(O)C(=O)O [Compound 29, 3-(4-(4-hexenyloxy)-1,2,5-thiadiazol-3-yl)-1,2,5,6-tetrahydro-1-methylpyridine oxalate]
23 | 0.3 | CC#CCOc1nsnc1C1=CCCN(C)C1.O=C(O)C(=O)O [Compound 12, 3-(4-(2-butynyloxy)-1,2,5-thiadiazol-3-yl)-1,2,5,6-tetrahydro-1-methylpyridine oxalate]

Row | Compound | Inhibition in vitro OXO BINDING (IC50: concentration which inhibits the specific binding of 3H-Oxo by 50%) [ng/mL]
24 | CC(C)COc1nsnc1C1=CCCN(C)C1.O=C(O)C(=O)O [Compound 7, 1,2,5,6-tetrahydro-3-(4-isobutoxy-1,2,5-thiadiazol-3-yl)-1-methylpyridine oxalate] | 1.7
25 | CCCCOc1nsnc1C1=CCCNC1.O=C(O)C(=O)O [Compound 18, 3-(4-butoxy-1,2,5-thiadiazol-3-yl)-1,2,5,6-tetrahydropyridine oxalate] | 3.6
26 | CCCCOCCOCCOc1nsnc1C1=CCCN(C)C1.O=C(O)C(=O)O [Compound 42, 3-(4-(2-(2-butoxyethoxy)ethoxy)-1,2,5-thiadiazol-3-yl)-1,2,5,6-tetrahydro-1-methylpyridine oxalate] | 7.0
